Reference: ChEMBL document CHEMBL5512674, “Novel Acyl Thiourea-Based Hydrophobic Tagging Degraders Exert Potent Anti-Influenza Activity through Two Distinct Endonuclease Polymerase Acidic-Targeted Degradation Pathways” (J Med Chem, 2024)
Activity calls are given as the source filed them. The calls are words filed in the database; no cut-off is given here.

Experiments:
Influenza A virus [1] = assay: Anti-influenza activity against Influenza A virus A/WSN/33(H1N1) infected in MDCK cells assessed as downregulation of nucleoprotein expression at 100 nM incubated for 24 hrs by Western blotting analysis relative to control; format: functional
[2] = Cytotoxicity against dog MDCK cells assessed as reduction in cell viability incubated for 48 hrs by CCK-8 assay; format: toxicity, cell-based, Canis lupus familiaris
[3] = molecular target: T1, von Hippel-Lindau disease tumor suppressor/Polymerase basic protein 1 (Influenza A virus (strain A/Puerto Rico/8/1934 H1N1)) (UniProt P03431+P40337); assay: PROTAC activity at Influenza A virus A/WSN/33(H1N1) flag tagged Polymerase basic protein 1/VHL (unknown origin) expressed in HEK293T cells assessed as degradation of PB1 expression at 0.1 to 10 uM incubated for 24 hrs by Western blotting analysis; format: cell-based; settings: dose 0.1-10 µM
T1 sequence (P03431 whole entry, looked up): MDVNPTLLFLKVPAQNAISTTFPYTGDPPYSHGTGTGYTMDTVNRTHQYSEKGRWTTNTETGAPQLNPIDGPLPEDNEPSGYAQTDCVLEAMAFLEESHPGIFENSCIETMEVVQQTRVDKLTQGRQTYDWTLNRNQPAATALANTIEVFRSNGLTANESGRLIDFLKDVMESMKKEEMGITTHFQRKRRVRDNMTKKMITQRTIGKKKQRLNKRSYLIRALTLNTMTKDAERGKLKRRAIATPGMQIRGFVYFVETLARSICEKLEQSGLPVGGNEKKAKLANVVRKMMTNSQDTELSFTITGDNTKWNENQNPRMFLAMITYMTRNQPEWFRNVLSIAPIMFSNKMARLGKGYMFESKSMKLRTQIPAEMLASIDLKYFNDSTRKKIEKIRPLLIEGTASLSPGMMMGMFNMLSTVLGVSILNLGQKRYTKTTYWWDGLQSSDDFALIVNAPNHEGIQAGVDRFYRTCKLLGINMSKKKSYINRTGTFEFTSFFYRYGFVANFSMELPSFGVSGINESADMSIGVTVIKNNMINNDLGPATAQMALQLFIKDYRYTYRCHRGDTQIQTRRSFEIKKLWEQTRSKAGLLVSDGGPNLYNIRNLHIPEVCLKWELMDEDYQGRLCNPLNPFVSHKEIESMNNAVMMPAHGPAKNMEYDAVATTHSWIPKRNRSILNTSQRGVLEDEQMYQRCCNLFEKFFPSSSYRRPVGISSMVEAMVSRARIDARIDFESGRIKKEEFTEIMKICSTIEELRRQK
T1 sequence (P40337 whole entry, looked up): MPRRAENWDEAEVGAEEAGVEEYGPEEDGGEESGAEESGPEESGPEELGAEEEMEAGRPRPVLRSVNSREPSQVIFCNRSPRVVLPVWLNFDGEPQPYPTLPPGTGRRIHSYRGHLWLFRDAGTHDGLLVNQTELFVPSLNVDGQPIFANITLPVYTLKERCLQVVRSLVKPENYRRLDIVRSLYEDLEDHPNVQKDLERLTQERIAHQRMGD

[4] = molecular target: T2, von Hippel-Lindau disease tumor suppressor/Polymerase acidic protein (Influenza A virus (A/Puerto Rico/8/1934(H1N1))) (UniProt P03433+P40337); assay: PROTAC activity at Influenza A virus A/WSN/33(H1N1) flag tagged Polymerase acidic protein/VHL (unknown origin) expressed in HEK293T cells assessed as degradation of PA expression at 10 uM incubated for 24 hrs by Western blotting analysis; format: cell-based
[5] = Cytotoxicity against human HEK293T cells assessed as reduction in cell viability incubated for 48 hrs by CCK-8 assay; format: toxicity, cell-based, HEK-293T
Influenza A virus [6] = assay: Anti-influenza activity against Influenza A virus H3N2 infected in HEK293T cells assessed as reduction in virus-induced cytopathic effect incubated for 48 hrs by CCK-8 assay; format: functional, organism-based; settings: H3N2, HEK-293T
[7] = molecular target: T1, von Hippel-Lindau disease tumor suppressor/Polymerase basic protein 1 (Influenza A virus (strain A/Puerto Rico/8/1934 H1N1)); assay: PROTAC activity at Influenza A virus A/WSN/33(H1N1) flag tagged Polymerase basic protein 1/VHL (unknown origin) expressed in HEK293T cells assessed as degradation of PB1 expression at 1 ug/ml incubated for 24 hrs by Western blotting analysis; format: cell-based; settings: dose 1.0 µg/ml
[8] = molecular target: T1, von Hippel-Lindau disease tumor suppressor/Polymerase basic protein 1 (Influenza A virus (strain A/Puerto Rico/8/1934 H1N1)); assay: PROTAC activity at Influenza A virus A/WSN/33(H1N1) flag tagged Polymerase basic protein 1/VHL (unknown origin) expressed in HEK293T cells assessed as degradation of PB1 expression at 10 ug/ml incubated for 24 hrs by Western blotting analysis; format: cell-based; settings: dose 10.0 µg/ml
[9] = molecular target: T3, von Hippel-Lindau disease tumor suppressor/Polymerase basic protein 2 (Influenza A virus (strain A/Puerto Rico/8/1934 H1N1)) (UniProt P40337+P03428); assay: PROTAC activity at Influenza A virus A/WSN/33(H1N1) flag tagged Polymerase basic protein 2/VHL (unknown origin) expressed in HEK293T cells assessed as degradation of PB2 expression at 10 ug/ml incubated for 24 hrs by Western blotting analysis; format: cell-based; settings: dose 10.0 µg/ml
T3 sequence (P03428 whole entry, looked up): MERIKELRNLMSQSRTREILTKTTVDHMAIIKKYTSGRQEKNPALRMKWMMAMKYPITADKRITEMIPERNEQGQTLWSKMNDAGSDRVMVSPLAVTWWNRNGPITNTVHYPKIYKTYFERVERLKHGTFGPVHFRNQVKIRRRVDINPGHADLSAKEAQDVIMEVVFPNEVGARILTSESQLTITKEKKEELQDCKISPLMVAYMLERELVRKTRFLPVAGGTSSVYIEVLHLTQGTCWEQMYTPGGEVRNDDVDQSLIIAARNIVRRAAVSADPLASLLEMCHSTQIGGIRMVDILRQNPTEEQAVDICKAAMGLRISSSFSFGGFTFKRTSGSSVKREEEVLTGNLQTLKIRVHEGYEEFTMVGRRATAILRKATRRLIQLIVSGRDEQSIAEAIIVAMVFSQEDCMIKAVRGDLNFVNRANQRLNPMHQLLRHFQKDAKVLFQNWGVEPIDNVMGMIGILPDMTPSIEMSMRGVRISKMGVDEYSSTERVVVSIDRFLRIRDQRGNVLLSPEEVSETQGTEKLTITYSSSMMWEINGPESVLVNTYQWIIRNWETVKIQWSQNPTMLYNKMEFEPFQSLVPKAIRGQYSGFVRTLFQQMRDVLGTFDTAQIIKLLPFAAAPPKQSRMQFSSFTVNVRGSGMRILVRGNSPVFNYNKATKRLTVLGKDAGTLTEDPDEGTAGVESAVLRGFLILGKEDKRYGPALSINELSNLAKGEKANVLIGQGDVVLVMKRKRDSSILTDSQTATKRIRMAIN
T3 sequence (P40337 whole entry, looked up): as the sequence (P40337 whole entry, looked up) above

Influenza B virus [10] = assay: Anti-influenza activity against Influenza B virus Yamagata/16/88 infected in HEK293T cells assessed as reduction in virus-induced cytopathic effect incubated for 48 hrs by CCK-8 assay; format: functional, organism-based; settings: Yamagata/16/88, HEK-293T
Influenza B virus [11] = assay: Anti-influenza activity against Influenza B virus Victoria/2/87 infected in HEK293T cells assessed as reduction in virus-induced cytopathic effect incubated for 48 hrs by CCK-8 assay; format: functional, organism-based; settings: Victoria/2/87, HEK-293T
[12] = molecular target: T3, von Hippel-Lindau disease tumor suppressor/Polymerase basic protein 2 (Influenza A virus (strain A/Puerto Rico/8/1934 H1N1)); assay: PROTAC activity at Influenza A virus A/WSN/33(H1N1) flag tagged Polymerase basic protein 2/VHL (unknown origin) expressed in HEK293T cells assessed as degradation of PB2 expression at 0.1 to 10 uM incubated for 24 hrs by Western blotting analysis; format: cell-based; settings: dose 0.1-10 µM
[13] = Selectivity index, ratio of CC50 for cytotoxicity against human HEK293T cells to EC50 for anti-influenza activity against Influenza A virus A/WSN/33(H1N1) infected in HEK293T cells assessed as reduction in virus-induced cytopathic effect; format: toxicity, cell-based; settings: read-out: Ratio CC50/EC50
[14] = molecular target: von Hippel-Lindau disease tumor suppressor/Polymerase acidic protein (Influenza A virus (A/Puerto Rico/8/1934(H1N1)), UniProt P03433+P40337); assay: PROTAC activity at Influenza A virus A/WSN/33(H1N1) flag tagged Polymerase acidic protein/VHL (unknown origin) expressed in HEK293T cells assessed as degradation of PA expression incubated for 24 hrs by Western blotting analysis; format: cell-based
[15] = molecular target: T3, von Hippel-Lindau disease tumor suppressor/Polymerase basic protein 2 (Influenza A virus (strain A/Puerto Rico/8/1934 H1N1)); assay: PROTAC activity at Influenza A virus A/WSN/33(H1N1) flag tagged Polymerase basic protein 2/VHL (unknown origin) expressed in HEK293T cells assessed as degradation of PB2 expression at 1 ug/ml incubated for 24 hrs by Western blotting analysis; format: cell-based; settings: dose 1.0 µg/ml
Influenza A virus [16] = assay: Anti-influenza activity against Influenza A virus A/WSN/33(H1N1) infected in HEK293T cells assessed as reduction in virus-induced cytopathic effect incubated for 48 hrs by CCK-8 assay; format: functional, organism-based; settings: HEK-293T
[17] = molecular target: T2, von Hippel-Lindau disease tumor suppressor/Polymerase acidic protein (Influenza A virus (A/Puerto Rico/8/1934(H1N1))); assay: PROTAC activity at Influenza A virus A/WSN/33(H1N1) flag tagged Polymerase acidic protein/VHL (unknown origin) expressed in HEK293T cells assessed as degradation of PA expression at 5 uM incubated for 24 hrs by Western blotting analysis; format: cell-based
[18] = molecular target: T2, von Hippel-Lindau disease tumor suppressor/Polymerase acidic protein (Influenza A virus (A/Puerto Rico/8/1934(H1N1))); assay: PROTAC activity at Influenza A virus A/WSN/33(H1N1) flag tagged Polymerase acidic protein/VHL (unknown origin) expressed in HEK293T cells assessed as degradation of PA expression at 10 uM incubated for 16 hrs by Western blotting analysis; format: cell-based
Influenza A virus [19] = assay: Anti-influenza activity against Influenza A virus A/PR/8/34 (H1N1) infected in MDCK cells assessed as inhibition of viral growth incubated for 48 hrs by luciferase assay; format: functional, organism-based
Influenza A virus [20] = assay: Anti-influenza activity against Influenza A virus A/WSN/33(H1N1) infected in MDCK cells assessed as downregulation of nucleoprotein expression at 1.56 to 100 nM incubated for 24 hrs by Western blotting analysis; format: functional, organism-based; settings: dose 1.56-100 nM
Influenza A virus [21] = assay: Anti-influenza activity against Influenza A virus A/PR/8/34 (H1N1) infected in MDCK cells assessed as inhibition of viral growth at 0.8 nM incubated for 48 hrs by luciferase assay relative to control; format: functional

SMILES: CCOC(=O)C1=C[C@@H](OC(CC)CC)[C@H](NC(C)=O)[C@@H](N)C1 [OSELTAMIVIR]
- Activity (Influenza A virus [1]): 44%
- CC50 at 48 h [2]: > 200000 nM

SMILES: CC(C)(C)OC(=O)NCCCC[C@H](NC(=O)OC(C)(C)C)C(=O)NCCCCCCCCC(=O)Nc1ccc(NC(=S)NC(=O)c2ccc(C(C)(C)C)cc2)cc1
- Activity [3]: inactive
- Activity [4]: Active
- CC50 at 48 h [5]: > 100000 nM
- EC50 (Influenza A virus [6]): > 10000 nM
- Activity [7]: inactive
- Activity [8]: inactive
- Activity [9]: inactive
- EC50 (Influenza B virus [10]): 130 nM
- EC50 (Influenza B virus [11]): 167 nM
- Activity [12]: inactive
- selectivity ratio [13]: > 4760
- DC50 [14]: 650 nM
- Activity [15]: inactive
- EC50 (Influenza A virus [16]): 21 nM

SMILES: Cc1ncsc1-c1ccc(CNC(=O)[C@@H]2C[C@@H](O)CN2C(=O)C(NCCCCCCCC(=O)Nc2ccc(NC(=S)NC(=O)c3ccc(C(C)(C)C)cc3)cc2)C(C)(C)C)cc1 (mixture of isomers)
- Activity [17]: Active
- Activity [18]: Active
- EC50 (Influenza A virus [16]): > 10000 nM

SMILES: O=C1c2c(O)c(=O)ccn2N([C@@H]2c3ccccc3SCc3c2ccc(F)c3F)[C@@H]2COCCN12 [BALOXAVIR]
- IC50 (Influenza A virus [19]): 1.49 nM
- Activity (Influenza A virus [20]): Active
- CC50 at 48 h [5]: 63100 nM
- EC50 (Influenza A virus [6]): 5 nM
- EC50 (Influenza B virus [10]): 71 nM
- EC50 (Influenza B virus [11]): 6 nM
- CC50 at 48 h [2]: 30900 nM
- inhibition at 0.0008 µM (Influenza A virus [21]): 21%
- selectivity ratio [13]: 16600
- EC50 (Influenza A virus [16]): 4 nM
